Molecular target: GLP-1 Receptor (Homo sapiens, UniProt P43220)
Assay: GLP-1R agonist cAMP stimulation assay (HEK293/GLP1R/CRE-LUC cells, cAMP dynamic 2 Kit)
Type: cell-based
Settings: HEK293/CRE-Luc cell line stably expressing the GLP-1 Receptor, 30 min at 37° C.
Procedure, shortened: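 HEK293 cells stably expressing human GLP-1R with CRE-luciferase, 1000 cells/well in DPBS with 0.5 mM IBMX and 0.1% BSA, treated with compound in 1/2-log serial dilution for 30 min at 37 °C. cAMP then detected by HTRF (cAMP-d2 plus anti-cAMP cryptate), 1 h at room temperature in the dark.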

Chain of GLP-1 Receptor (P43220 24-463, species assumed): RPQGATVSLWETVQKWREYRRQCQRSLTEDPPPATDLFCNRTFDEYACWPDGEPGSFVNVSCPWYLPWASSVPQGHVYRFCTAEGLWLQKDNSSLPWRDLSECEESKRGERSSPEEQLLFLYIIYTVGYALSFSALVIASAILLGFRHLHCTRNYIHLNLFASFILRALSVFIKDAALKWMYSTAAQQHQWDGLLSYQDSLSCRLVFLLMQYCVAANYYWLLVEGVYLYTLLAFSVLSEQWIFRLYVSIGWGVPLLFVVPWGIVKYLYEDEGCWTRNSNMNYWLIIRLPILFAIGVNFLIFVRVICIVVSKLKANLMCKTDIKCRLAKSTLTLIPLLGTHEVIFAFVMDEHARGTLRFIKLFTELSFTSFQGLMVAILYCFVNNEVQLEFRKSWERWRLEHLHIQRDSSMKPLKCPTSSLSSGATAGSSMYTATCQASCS

Fc1cc(Cl)ccc1COc1nccc(C2CCN(Cc3nc4cc(-c5nnc(C(F)(F)F)[nH]5)nnc4n3C[C@@H]3CCO3)CC2)n1 [Compound 508a, 2-[(4-chloro-2-fluorophenyl)methoxy]-4-{1-[(7-{[(2S)-oxetan-2-yl]methyl}-3-[5-(trifluoromethyl)-4H-1,2,4-triazol-3-yl]-7H-imidazo[4,5-c]pyridazin-6-yl)methyl]piperidin-4-yl}pyrimidine] and Fc1cc(Cl)ccc1C1COc2cccc(C3CCN(Cc4nc5cc(-c6nnc(C(F)(F)F)[nH]6)nnc5n4C[C@@H]4CCO4)CC3)c2O1 (stereo partly drawn) [Compound 465a, 4-[3-(4-chloro-2-fluorophenyl)-2,3-dihydro-1,4-benzodioxin-5-yl]-1-[(7-{[(2S)-oxetan-2-yl]methyl}-3-[5-(trifluoromethyl)-4H-1,2,4-triazol-3-yl]-7H-imidazo[4,5-c]pyridazin-6-yl)methyl]piperidine] are within 1.5-fold of each other in EC50: 0.42 nM for the first, 0.3 nM for the second.

Going from Fc1cc(Cl)ccc1COc1nc(N2CCN(Cc3nc4cc(-c5nnc(C(F)(F)F)[nH]5)cnc4n3C[C@@H]3CCO3)CC2)ncc1F [Compound 511a, 4-[(4-chloro-2-fluorophenyl)methoxy]-5-fluoro-2-{4-[(3-{[(2S)-oxetan-2-yl]methyl}-6-[5-(trifluoromethyl)-4H-1,2,4-triazol-3-yl]-3H-imidazo[4,5-b]pyridin-2-yl)methyl]piperazin-1-yl}pyrimidine] to CC1(c2ccc(Cl)cc2F)Oc2cccc(C3CCN(Cc4nc5cc(-c6nnc(C(F)(F)F)[nH]6)cnc5n4C[C@@H]4CCO4)CC3)c2O1 (mixture of isomers) [Compound 224a, 4-[2-(4-chloro-2-fluorophenyl)-2-methyl-2H-1,3-benzodioxol-4-yl]-1-[(3-{[(2S)-oxetan-2-yl]methyl}-6-[5-(trifluoromethyl)-4H-1,2,4-triazol-3-yl]-3H-imidazo[4,5-b]pyridin-2-yl)methyl]piperidine], the EC50 falls from 0.079 nM to 0.018 nM (4.4-fold).

Compared with CO[C@@H](C)Cn1c(CN2CCC(c3cccc4c3O[C@@](C)(c3ccc(C#N)cc3F)O4)CC2)nc2cc(-c3nnc(C(F)(F)F)[nH]3)ncc21 [Compound 454a, 3-fluoro-4-[(2S)-4-[1-({3-[(2S)-2-methoxypropyl]-6-[5-(trifluoromethyl)-4H-1,2,4-triazol-3-yl]-3H-imidazo[4,5-c]pyridin-2-yl}methyl)piperidin-4-yl]-2-methyl-2H-1,3-benzodioxol-2-yl]benzonitrile], CO[C@H](C)Cn1c(CN2CCC(c3cccc4c3O[C@@](C)(c3ccc(Cl)cc3F)O4)CC2)nc2cc(-c3nnc(C(F)(F)F)[nH]3)ncc21 [Compound 418a, 4-[(2S)-2-(4-chloro-2-fluorophenyl)-2-methyl-2H-1,3-benzodioxol-4-yl]-1-({3-[(2R)-2-methoxypropyl]-6-[5-(trifluoromethyl)-4H-1,2,4-triazol-3-yl]-3H-imidazo[4,5-c]pyridin-2-yl}methyl)piperidine] is 1.8-fold lower in EC50: 0.17 nM for the first, 0.095 nM for the second.

Going from Fc1cc(Cl)ccc1COc1cccc(C2CCN(Cc3nc4cc(/C=C/c5cccnc5)ccc4n3C[C@@H]3CCO3)CC2)n1 [Compound 217a, 2-[(4-{6-[(4-chloro-2-fluorophenyl)methoxy]pyridin-2-yl}piperidin-1-yl)methyl]-1-{[(2S)-oxetan-2-yl]methyl}-5-[(E)-2-(pyridin-3-yl)ethenyl]-1H-1,3-benzodiazole] to CC(C)C(=O)Nc1ccc2c(c1)nc(CN1CCC(c3cccc(OCc4ccc(Cl)cc4F)n3)CC1)n2C[C@@H]1CCO1 [Compound 105a, (S)—N-(2-((4-(6-((4-chloro-2-fluorobenzyl)oxy)pyridin-2-yl)piperidin-1-yl)methyl)-1-(oxetan-2-ylmethyl)-1H-benzo[d]imidazol-5-yl)isobutyramide], the EC50 falls from 4.6 nM to 0.175 nM (26-fold). The second is the more potent here.

Compared with O=S1(=O)CCCN1c1ccc2c(c1)nc(CN1CCC(c3cccc(OCc4ccc(Cl)cc4F)n3)CC1)n2C[C@@H]1CCO1 [Compound 118a, (S)-2-(2-((4-(6-((4-chloro-2-fluorobenzyl)oxy)pyridin-2-yl)piperidin-1-yl)methyl)-1-(oxetan-2-ylmethyl)-1H-benzo[d]imidazol-5-yl)isothiazolidine 1,1-dioxide], O=C(NC1CC1)c1ccc2c(c1)nc(CN1CCC(c3cccc(OCc4ccc(Cl)cc4F)n3)CC1)n2C[C@@H]1CCO1 [Compound 396a, 2-[(4-{6-[(4-chloro-2-fluorophenyl)methoxy]pyridin-2-yl}piperidin-1-yl)methyl]-N-cyclopropyl-1-{[(2S)-oxetan-2-yl]methyl}-1H-1,3-benzodiazole-5-carboxamide] is 3.1-fold lower in EC50: 10 nM for the first, 3.2 nM for the second. The second is the more potent here.

Going from CC1(c2ccc(Cl)cc2F)Oc2cccc(C3=CCN(Cc4nc5cc(-c6nnc(C(F)(F)F)[nH]6)ccc5n4C[C@@H]4CCO4)CC3)c2O1 (stereo partly drawn) [Compound 256a, 2-({4-[2-(4-chloro-2-fluorophenyl)-2-methyl-2H-1,3-benzodioxol-4-yl]-1,2,3,6-tetrahydropyridin-1-yl}methyl)-1-{[(2S)-oxetan-2-yl]methyl}-5-[5-(trifluoromethyl)-4H-1,2,4-triazol-3-yl]-1H-1,3-benzodiazole] to CC1(c2ccc(Cl)cc2F)Oc2cccc(C3CCN(Cc4nc5cc(-c6nnc(C(F)(F)F)[nH]6)c(F)cc5n4C[C@@H]4CCO4)CC3)c2O1 (stereo partly drawn) [Compound 248a, 2-({4-[2-(4-chloro-2-fluorophenyl)-2-methyl-2H-1,3-benzodioxol-4-yl]piperidin-1-yl}methyl)-6-fluoro-1-{[(2S)-oxetan-2-yl]methyl}-5-[5-(trifluoromethyl)-4H-1,2,4-triazol-3-yl]-1H-1,3-benzodiazole], the EC50 falls from 0.23 nM to 0.11 nM (2.1-fold). The second is the more potent here.

Going from C[C@]1(c2ccc(Cl)cc2F)Oc2cccc(C3CCN(Cc4nc5cc(-c6nnn[nH]6)ncc5n4C[C@@H]4CCO4)CC3)c2O1 [Compound 417a, 4-[(2S)-2-(4-chloro-2-fluorophenyl)-2-methyl-2H-1,3-benzodioxol-4-yl]-1-[(3-{[(2S)-oxetan-2-yl]methyl}-6-(1H-1,2,3,4-tetrazol-5-yl)-3H-imidazo[4,5-c]pyridin-2-yl)methyl]piperidine] to C[C@]1(c2ccc(Cl)cn2)Oc2cccc(C3CCN(Cc4nc5cc(-c6nnn[nH]6)ncc5n4C[C@@H]4CCO4)CC3)c2O1 [Compound 449a, 5-chloro-2-[(2S)-2-methyl-4-{1-[(3-{[(2S)-oxetan-2-yl]methyl}-6-(1H-1,2,3,4-tetrazol-5-yl)-3H-imidazo[4,5-c]pyridin-2-yl)methyl]piperidin-4-yl}-2H-1,3-benzodioxol-2-yl]pyridine], the EC50 rises from 0.0065 nM to 0.016 nM (2.5-fold). The first is the more potent here.

Compared with Cc1nnc(-c2ccc3c(c2)nc(CN2CCC(c4cccc5c4OC(C)(c4ccc(Cl)cc4F)O5)CC2)n3C[C@@H]2CCO2)[nH]1 (stereo partly drawn) [Compound 243a, 2-({4-[2-(4-chloro-2-fluorophenyl)-2-methyl-2H-1,3-benzodioxol-4-yl]piperidin-1-yl}methyl)-5-(5-methyl-4H-1,2,4-triazol-3-yl)-1-{[(2S)-oxetan-2-yl]methyl}-1H-1,3-benzodiazole], Cc1nnc(-c2ccc3c(c2)nc(CN2CCC(c4cccc5c4O[C@@](C)(c4ccc(C#N)cc4F)O5)CC2)n3C[C@@H]2CCO2)[nH]1 [Compound 410a, 3-fluoro-4-[(2S)-2-methyl-4-(1-{[5-(5-methyl-4H-1,2,4-triazol-3-yl)-1-{[(2S)-oxetan-2-yl]methyl}-1H-1,3-benzodiazol-2-yl]methyl}piperidin-4-yl)-2H-1,3-benzodioxol-2-yl]benzonitrile] is 1.8-fold lower in EC50: 0.052 nM for the first, 0.029 nM for the second.

First: CO[C@H](C)Cn1c(CN2CCC(c3cccc4c3O[C@@](C)(c3ccc(Cl)cn3)O4)CC2)nc2cc(-c3nnc(C(F)(F)F)[nH]3)ncc21 [Compound 455a, 5-chloro-2-[(2S)-4-[1-({3-[(2R)-2-methoxypropyl]-6-[5-(trifluoromethyl)-4H-1,2,4-triazol-3-yl]-3H-imidazo[4,5-c]pyridin-2-yl}methyl)piperidin-4-yl]-2-methyl-2H-1,3-benzodioxol-2-yl]pyridine]
Second: C[C@]1(c2ccc(Cl)cc2F)Oc2cccc(C3CCN(Cc4nc5cc(-c6nnc(C(F)(F)F)[nH]6)ccc5n4CC4(C#N)CC4)CC3)c2O1 [Compound 412a, 1-{[2-({4-[(2S)-2-(4-chloro-2-fluorophenyl)-2-methyl-2H-1,3-benzodioxol-4-yl]piperidin-1-yl}methyl)-5-[5-(trifluoromethyl)-4H-1,2,4-triazol-3-yl]-1H-1,3-benzodiazol-1-yl]methyl}cyclopropane-1-carbonitrile]
The EC50 of the first is 3.6-fold higher: 0.12 nM for the first, 0.033 nM for the second.

First: CC1(c2ccc(Cl)cc2)Oc2cccc(C3CCN(Cc4nc5cc(-c6noc(=O)[nH]6)cnc5n4C[C@@H]4CCO4)CC3)c2O1 (stereo partly drawn) [Compound 330a, 3-[2-({4-[2-(4-chlorophenyl)-2-methyl-2H-1,3-benzodioxol-4-yl]piperidin-1-yl}methyl)-3-{[(2S)-oxetan-2-yl]methyl}-3H-imidazo[4,5-b]pyridin-6-yl]-4,5-dihydro-1,2,4-oxadiazol-5-one]
Second: C[C@]1(c2ccc(Cl)cc2F)Oc2cccc(C3CCN(Cc4nc5cc(-c6noc(=O)[nH]6)ncc5n4C[C@@H]4CCO4)CC3)c2O1 [Compound 375a, 3-[2-({4-[(2S)-2-(4-chloro-2-fluorophenyl)-2-methyl-2H-1,3-benzodioxol-4-yl]piperidin-1-yl}methyl)-3-{[(2S)-oxetan-2-yl]methyl}-3H-imidazo[4,5-c]pyridin-6-yl]-4,5-dihydro-1,2,4-oxadiazol-5-one]
The EC50 of the first is 150-fold higher: 0.97 nM for the first, 0.0063 nM for the second. The second is the more potent here.

First: O=C(Nc1ccc2c(c1)nc(CN1CCC(c3cccc(OCc4ccc(Cl)cc4F)n3)CC1)n2C[C@@H]1CCO1)C1CC12CCC2 (stereo partly drawn) [Compound 193a, N-{2-[(4-{6-[(4-chloro-2-fluorophenyl)methoxy]pyridin-2-yl}piperidin-1-yl)methyl]-1-{[(2S)-oxetan-2-yl]methyl}-1H-1,3-benzodiazol-5-yl}spiro[2.3]hexane-1-carboxamide]
Second: Fc1cc(Cl)ccc1COc1cc(C2CCN(Cc3nc4cc(-c5nnc(C(F)(F)F)[nH]5)ncc4n3C[C@@H]3CCO3)CC2F)ccc1F (stereo partly drawn) [Compound 478a, (3,4-trans)-4-{3-[(4-chloro-2-fluorophenyl)methoxy]-4-fluorophenyl}-3-fluoro-1-[(3-{[(2S)-oxetan-2-yl]methyl}-6-[5-(trifluoromethyl)-4H-1,2,4-triazol-3-yl]-3H-imidazo[4,5-c]pyridin-2-yl)methyl]piperidine]
The EC50 of the first is 2.3-fold higher: 0.23 nM for the first, 0.1 nM for the second.
